Tested on: fibroblasts
Assay: Toxic effect on cultured fibroblasts, mimic of stealth virus culture toxicity
Format: cell-based
Details: 5 nM
Excerpt: A lack of regular refeeding of the cultures can result in a tendency for the CPE to abort and not to progress. This effect is not seen with CMV infected cultures. In unfed stealth virus cultures and even with regular refeeding, one can observe a toxic effect on many of the remaining cells. Culture cells appear to lose a degree of vitality and become duller in appearance compared to control cultures. The fibroblasts can assume somewhat of a pavement appearance, instead of the elongated shape.

## C=C1[C@@H](O)[C@@H]2O[C@]3(CC[C@H](/C=C/[C@@H](C)[C@@H]4CC(C)=C[C@@]5(O[C@H](C[C@@](C)(O)C(=O)O)CC[C@H]5O)O4)O3)CC[C@H]2O[C@@H]1[C@@H](O)C[C@H](C)[C@H]1O[C@@]2(CCCCO2)CC[C@H]1C [okadaic acid]
  toxic effect on culture cells (loss of vitality, duller, pavement appearance): Some of these changes can be mimicked

— patent US20030049600A1, “STEALTH VIRUS DETECTION IN THE CHRONIC FATIGUE SYNDROME” (priority 1991, published 2003)
